Data as given in patent publication US12448369B2 (Edgewise Therapeutics, Inc., priority 2023, dated 2025).

Assays:
[1] = test system: Porcine atria myofibrils (atrial myosin ATPase); assay: Myofibril ATPase assay, porcine atria myofibrils; type: biochemical; conditions: Y75 value (no ‡ mark); porcine atria myofibrils
Outline: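 Coupled PK-LDH readout, NADH loss at 340 nm, kinetic 75 min. Porcine atria myofibrils, pCa buffer (PIPES/CaCl2/EGTA, pH 7.0). Slopes (mAU/min) normalized to vehicle = 100%, 4-parameter fit; Y75 or Y125 reported.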

[2] = target: T1, Porcine ventricle myofibrils (ventricular myosin ATPase) (Sus scrofa, UniProt P79293); assay: Myofibril ATPase assay, porcine ventricle myofibrils; type: biochemical, porcine (Yucatan minipigs); conditions: Y75 value (no ‡ mark); porcine ventricle myofibrils
T1 construct: Myofibrils from porcine cardiac muscle was isolated from the left ventricle of Yucatan minipigs; tissue Exemplar Genetics; host or cells: left ventricle of Yucatan minipigs, myofibrils prepared in house
Outline: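 In a coupled enzyme format, ADP from myofibril ATPase drives NADH oxidation, monitored kinetically at 340 nm for 75 min using minipig ventricle myofibrils. Effective concentrations giving 25% loss or gain of activity relative to vehicle were calculated from 4-parameter fits.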

[3] = test system: Rabbit Psoas myofibrils (skeletal myosin ATPase); assay: Myofibril ATPase assay, rabbit psoas (skeletal) myofibrils; type: biochemical; conditions: Y75 value (no ‡ mark); rabbit psoas myofibrils
Outline: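 Readout: A340 decline from NADH oxidation, PK/LDH-coupled to ADP release; kinetic reads over 75 min. Buffer: pCa (PIPES, CaCl2, EGTA), pH 7.0. Linear-regression slopes vs vehicle, 4PL fit; reported as concentration giving 75% (Y75) or 125% (Y125) of vehicle activity.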

T1 sequence (P79293 whole entry): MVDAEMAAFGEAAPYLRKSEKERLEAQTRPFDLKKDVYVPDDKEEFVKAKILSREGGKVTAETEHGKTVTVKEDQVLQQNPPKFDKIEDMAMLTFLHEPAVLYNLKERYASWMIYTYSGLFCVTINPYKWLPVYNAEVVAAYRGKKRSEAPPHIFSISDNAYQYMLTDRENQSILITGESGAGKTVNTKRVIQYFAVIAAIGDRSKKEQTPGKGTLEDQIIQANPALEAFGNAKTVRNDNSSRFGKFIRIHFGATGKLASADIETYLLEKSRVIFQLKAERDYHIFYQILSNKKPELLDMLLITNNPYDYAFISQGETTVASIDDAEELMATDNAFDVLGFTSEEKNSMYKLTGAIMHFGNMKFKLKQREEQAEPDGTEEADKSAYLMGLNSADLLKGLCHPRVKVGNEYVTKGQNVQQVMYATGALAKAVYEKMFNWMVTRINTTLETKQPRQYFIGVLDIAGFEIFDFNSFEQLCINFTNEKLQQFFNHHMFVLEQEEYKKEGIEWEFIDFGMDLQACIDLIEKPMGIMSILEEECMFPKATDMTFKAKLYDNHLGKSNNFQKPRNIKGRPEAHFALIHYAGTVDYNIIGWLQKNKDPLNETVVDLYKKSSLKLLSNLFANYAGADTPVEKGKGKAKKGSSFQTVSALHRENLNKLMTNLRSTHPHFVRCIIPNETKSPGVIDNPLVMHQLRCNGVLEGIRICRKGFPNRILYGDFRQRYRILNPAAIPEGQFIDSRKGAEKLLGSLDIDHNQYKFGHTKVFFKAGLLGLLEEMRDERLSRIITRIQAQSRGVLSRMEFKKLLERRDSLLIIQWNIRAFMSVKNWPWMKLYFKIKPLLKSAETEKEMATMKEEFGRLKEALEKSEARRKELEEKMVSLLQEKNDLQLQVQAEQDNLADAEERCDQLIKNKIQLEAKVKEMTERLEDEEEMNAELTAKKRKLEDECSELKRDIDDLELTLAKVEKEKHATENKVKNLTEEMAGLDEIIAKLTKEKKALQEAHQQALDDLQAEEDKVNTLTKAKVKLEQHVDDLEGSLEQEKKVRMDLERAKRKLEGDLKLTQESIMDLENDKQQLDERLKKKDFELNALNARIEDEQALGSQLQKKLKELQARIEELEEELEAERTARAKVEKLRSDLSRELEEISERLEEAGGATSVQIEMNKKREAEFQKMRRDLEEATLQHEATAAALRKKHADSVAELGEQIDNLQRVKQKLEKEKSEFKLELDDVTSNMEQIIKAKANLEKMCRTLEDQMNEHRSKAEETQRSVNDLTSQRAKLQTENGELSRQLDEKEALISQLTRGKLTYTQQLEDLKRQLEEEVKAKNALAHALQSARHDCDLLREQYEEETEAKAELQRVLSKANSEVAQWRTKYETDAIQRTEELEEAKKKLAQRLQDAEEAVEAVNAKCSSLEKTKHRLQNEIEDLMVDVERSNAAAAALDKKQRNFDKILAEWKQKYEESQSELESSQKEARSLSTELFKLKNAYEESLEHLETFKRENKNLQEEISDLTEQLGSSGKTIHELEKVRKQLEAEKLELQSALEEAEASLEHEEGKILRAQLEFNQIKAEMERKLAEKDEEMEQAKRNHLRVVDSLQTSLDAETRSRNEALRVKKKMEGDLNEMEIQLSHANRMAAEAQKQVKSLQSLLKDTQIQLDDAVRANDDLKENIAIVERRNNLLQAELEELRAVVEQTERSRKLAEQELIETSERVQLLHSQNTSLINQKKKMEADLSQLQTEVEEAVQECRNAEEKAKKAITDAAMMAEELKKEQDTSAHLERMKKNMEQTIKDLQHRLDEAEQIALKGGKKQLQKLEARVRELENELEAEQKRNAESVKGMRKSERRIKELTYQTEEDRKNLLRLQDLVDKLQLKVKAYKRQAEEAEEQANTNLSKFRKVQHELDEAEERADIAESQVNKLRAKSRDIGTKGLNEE

Row | Structure (SMILES) | Atrial EC25 [1] [nM] | Ventricular EC25 [2] [nM] | Skeletal EC25 [3] [nM]
1 | Cc1c(CC(=O)N[C@H](C)c2ccc(C#N)cn2)c(=O)[nH]c2cccc(F)c12 [compound 53] | 1930 | 6530 | 310
2 | Cc1c(CC(=O)N[C@@H](C)c2ccc(C#N)cn2)c(=O)[nH]c2cccc(F)c12 [compound 54] | 110 | 1530 | 40
3 | C[C@@H](NC(=O)Cc1c(C2CC2)c2cc(F)ccc2[nH]c1=O)c1ccc(C#N)cn1 [compound 55] | 1290 | 100000 | 1200
4 | C[C@H](NC(=O)Cc1c(C2CC2)c2cc(F)ccc2[nH]c1=O)c1ccc(C#N)cn1 [compound 56] | 2470 | 3980 | 120
5 | Cc1c(CC(=O)N[C@H](C)c2ccc(C#N)cc2F)c(=O)[nH]c2ccc(F)c(F)c12 [compound 65] | 230 | 220 | 20
6 | Cc1c(CC(=O)N[C@@H](C)c2ccc(C#N)cc2F)c(=O)[nH]c2ccc(F)c(F)c12 [compound 66] | 50 | 60 | 10
7 | Cc1c(CC(=O)N[C@H](C)c2ccc(C#N)cc2F)c(=O)[nH]c2ccc(F)c(C#N)c12 [compound 67] | 110 | 260 | 30
8 | Cc1c(CC(=O)N[C@@H](C)c2ccc(C#N)cc2F)c(=O)[nH]c2ccc(F)c(C#N)c12 [compound 68] | 60 | 70 | 10
9 | Cc1c(CC(=O)N[C@H](C)c2ccc(C#N)cc2F)c(=O)[nH]c2ccc(F)c(C3CC3)c12 [compound 69] | 30 | 110 | 10
10 | Cc1c(CC(=O)N[C@@H](C)c2ccc(C#N)cc2F)c(=O)[nH]c2ccc(F)c(C3CC3)c12 [compound 70] | 100000 | 100000 | 30
11 | Cc1c(CC(=O)N[C@H](CO)c2ccc(C#N)cc2F)c(=O)[nH]c2ccc(F)c(C3CC3)c12 [compound 71] | 1100 | 8500 | 230
12 | Cc1c(CC(=O)N[C@@H](CO)c2ccc(C#N)cc2F)c(=O)[nH]c2ccc(F)c(C3CC3)c12 [compound 72] | 80 | 340 | 20
13 | C[C@@H](NC(=O)Cc1c(C2CC2)c2cc(F)ccc2[nH]c1=O)c1ccc(C#N)cc1F [compound 73] | 100000 | 100000 | 20
14 | C[C@H](NC(=O)Cc1c(C2CC2)c2cc(F)ccc2[nH]c1=O)c1ccc(C#N)cc1F [compound 74] | 690 | 460 | 10
15 | N#Cc1ccc([C@@H](CO)NC(=O)Cc2c(C3CC3)c3cc(F)ccc3[nH]c2=O)c(F)c1 [compound 75] | 59370 | 610 | 15210
16 | N#Cc1ccc([C@H](CO)NC(=O)Cc2c(C3CC3)c3cc(F)ccc3[nH]c2=O)c(F)c1 [compound 76] | 100000 | 100000 | 100000
17 | C[C@H](NC(=O)Cc1cc2c(C#N)c(O)ccc2[nH]c1=O)c1ccc(F)cc1F [compound 82] | 100000 | 100000 | 100000
18 | Cc1c(CC(=O)N[C@@H](C)c2ccc(F)cc2F)c(=O)[nH]c2ccc(O)c(C#N)c12 [compound 84] | 2520 | 55560 | 7240
19 | Cc1c(CC(=O)N[C@@H](C)c2ccc(F)cc2F)c(=O)[nH]c2ccc(F)c(Cl)c12 [compound 85] | 30 | 70 | 20
20 | COc1ccc2[nH]c(=O)c(C(C)C(=O)N[C@@H](C)c3ccc(F)cc3F)cc2c1Cl (stereo partly drawn) [compound 87] | 100000 | 100000 | 100000
21 | C[C@H](NC(=O)Cc1cc2c(Cl)c(O)ccc2[nH]c1=O)c1ccc(F)cc1F [compound 91] | 1380 | 100000 | 3550
22 | COc1ccc2[nH]c(=O)c(CC(=O)N[C@@H](C)c3ccc(F)cc3F)cc2c1C [compound 92] | 29940 | 100000 | 2830
23 | CC(C(=O)N[C@@H](C)c1ccc(F)cc1F)c1cc2c(Br)cccc2[nH]c1=O (stereo partly drawn) [compound 94] | 6810 | 100000 | 220

Second part, the molecule after the results:

Row | Atrial EC25 [1] [nM] | Ventricular EC25 [2] [nM] | Skeletal EC25 [3] [nM] | Structure (SMILES)
24 | 70 | 130 | 10 | Cc1c(CC(=O)N[C@@H](C)c2ccc(F)cc2F)c(=O)[nH]c2ccc(F)c(C(F)(F)F)c12 [compound 96]
25 | 40 | 110 | 230 | Cc1c(CC(=O)N[C@@H](C)c2ccc(F)cc2F)c(=O)[nH]c2ccc(F)c(C3CC3)c12 [compound 101]
26 | 50 | 200 | 40 | C[C@H](NC(=O)Cc1c(C(F)F)c2cc(F)ccc2[nH]c1=O)c1ccc(F)cc1F [compound 106]
27 | 30 | 90 | 20 | C[C@H](NC(=O)Cc1c(C(F)F)c2c(F)c(F)ccc2[nH]c1=O)c1ccc(F)cc1F [compound 107]
28 | 40 | 130 | 10 | Cc1c(CC(=O)N[C@@H](C)c2ccc(F)cc2F)c(=O)[nH]c2ccc(F)c(Br)c12 [compound 109]
29 | 100 | 1610 | 40 | CC(C(=O)N[C@@H](C)c1ccc(F)cc1F)c1c(C(F)(F)F)c2cc(F)ccc2[nH]c1=O (stereo partly drawn) [compound 113]
30 | 3860 | 4540 | 60 | C[C@H](NC(=O)Cc1c(C2CC2)c2cc(F)ccc2[nH]c1=O)c1ccc(F)cc1F [compound 114]
31 | 50 | 320 | 20 | C[C@H](NC(=O)Cc1c(C(F)(F)F)c2cc(F)ccc2[nH]c1=O)c1ccc(F)cc1F [compound 115]
32 | 40 | 130 | 20 | Cc1c(CC(=O)N[C@@H](C)c2ccc(F)cc2F)c(=O)[nH]c2ccc(F)c(F)c12 [compound 116]
33 | 100000 | 100000 | 6320 | C[C@H](NC(=O)Cc1cc2cc(C3CC3)ccc2[nH]c1=O)c1ccc(F)cc1F [compound 117]
34 | 60 | 300 | 30 | C[C@H](NC(=O)Cc1cc2c(F)c(F)ccc2[nH]c1=O)c1ccc(F)cc1F [compound 118]
35 | 260 | 1960 | 110 | C[C@H](NC(=O)C(F)(F)c1cc2cc(F)ccc2[nH]c1=O)c1ccc(F)cc1F [compound 119]
36 | 40 | 250 | 50 | Cc1c(CC(=O)N[C@@H](C)c2ccc(F)cc2F)c(=O)[nH]c2ccc(Br)cc12 [compound 120]
37 | 100000 | 100000 | 3750 | C[C@H](NC(=O)Cc1cc2cc(C#N)ccc2[nH]c1=O)c1ccc(F)cc1F [compound 121]
38 | 100000 | 100000 | 42440 | COc1ccc2[nH]c(=O)c(CC(=O)N[C@@H](C)c3ccc(F)cc3F)cc2c1 [compound 124]
39 | 64800 | 20890 | 25670 | C[C@H](NC(=O)Cc1cc2cc(O)ccc2[nH]c1=O)c1ccc(F)cc1F [compound 125]
40 | 60 | 490 | 30 | CCc1c(CC(=O)N[C@@H](C)c2ccc(F)cc2F)c(=O)[nH]c2ccccc12 [compound 126]
41 | 190 | 3120 | 170 | Cc1c(C(C)C(=O)N[C@@H](C)c2ccc(F)cc2F)c(=O)[nH]c2ccc(F)cc12 (stereo partly drawn) [compound 127]
42 | 900 | 9830 | 170 | CNc1c(CC(=O)N[C@@H](C)c2ccc(F)cc2F)c(=O)[nH]c2ccccc12 [compound 128]
43 | 210 | 750 | 40 | C[C@H](NC(=O)Cc1c(C(F)(F)F)c2ccccc2[nH]c1=O)c1ccc(F)cc1F [compound 129]
